Experimental data: US20170224654A1, “PHARMACEUTICAL COMPOSITIONS AND METHODS FOR COUNTERING CHEMOTHERAPY INDUCED CARDIOTOXICITY” (Stem Cell Theranostics, Inc., priority 2016, published 2017)
“Also recorded” adds a separate entry of the source.

Experiments:
TOPOIIβ = target: T1, TOPOIIβ (Homo sapiens, UniProt Q02880); experiment: kDNA decatenation assay; format: biochemical; settings: for TOPOIIβ enzymatic inhibition (in words): DHM: even at >200 μM
T1 construct: purchased Inspiralis

TOPOIIα = target: T2, TOPOIIα (Homo sapiens, UniProt P11388); experiment: kDNA decatenation assay; format: biochemical; settings: for TOPOIIα enzymatic inhibition (in words): DHM: even at >200 μM
T2 construct: purchased Inspiralis

[1] = test system: Human iPSC-derived cardiomyocytes; experiment: Cytotoxicity of MYR analogs to cardiomyocytes; settings: for cytotoxicity / toxic effects to cardiomyocytes (in words): at or below 100 μM as stated; for Toxicity: 100 μM
[2] = test system: Doxorubicin treated human iPSC-derived cardiomyocytes; experiment: iPSC-CM protection of MYR analogs against doxorubicin; format: cell-based
[3] = test system: TOPOII enzymes (TOPOIIα and TOPOIIβ); experiment: kDNA decatenation assay, TOPOIIα and TOPOIIβ jointly; format: biochemical; settings: discussion of Table 1
Procedure: 200 ng of kinetoplast DNA (kDNA) was incubated with one enzymatic unit of TOPOIIα or TOPOIIβ enzyme (Inspiralis) and with various concentrations of MYR or DEX at 37° C. for 30 min. The reaction was then separated on 1% agarose gel for visualization of decatenated DNA (bottom band). The efficiency of catalytic inhibition was quantified by measuring the relative intensity of the band.

[4] = test system: MDA-MB-231 breast cancer cells; experiment: Cell viability with doxorubicin (CellTiter-Glo); format: cell-based; settings: co-treated with increasing concentrations of doxorubicin, 72 hours
A549 cells (lung cancer) = experiment: Cell viability with doxorubicin (CellTiter-Glo); format: cell-based; settings: co-treated with increasing concentrations of doxorubicin, 72 hours
Procedure: A549 cells (lung cancer) were cultured for 1 day before performing experiments. […] XLFit was used for curve fitting.

[5] = test system: induced pluripotent stem cell-derived cardiomyocytes; experiment: Acute toxicity on electrophysiology (MEA beat period, field potential duration); format: cell-based; settings: for beat period or field potential duration, as compared to control samples: lower drug concentration, at least 20 minutes; for acute drug toxicity (beating): higher concentrations
Procedure: Samples were either mock-treated with 0.1% DMSO, or treated with increasing concentrations of the indicated drug for at least 20 minutes. Cardiomyocytes were treated with the hERG potassium channel blocker E4031 as a control. Following treatment, the beat period and field potential duration (FPD) were measured in each sample using the MEA.

T2 sequence (P11388 whole entry): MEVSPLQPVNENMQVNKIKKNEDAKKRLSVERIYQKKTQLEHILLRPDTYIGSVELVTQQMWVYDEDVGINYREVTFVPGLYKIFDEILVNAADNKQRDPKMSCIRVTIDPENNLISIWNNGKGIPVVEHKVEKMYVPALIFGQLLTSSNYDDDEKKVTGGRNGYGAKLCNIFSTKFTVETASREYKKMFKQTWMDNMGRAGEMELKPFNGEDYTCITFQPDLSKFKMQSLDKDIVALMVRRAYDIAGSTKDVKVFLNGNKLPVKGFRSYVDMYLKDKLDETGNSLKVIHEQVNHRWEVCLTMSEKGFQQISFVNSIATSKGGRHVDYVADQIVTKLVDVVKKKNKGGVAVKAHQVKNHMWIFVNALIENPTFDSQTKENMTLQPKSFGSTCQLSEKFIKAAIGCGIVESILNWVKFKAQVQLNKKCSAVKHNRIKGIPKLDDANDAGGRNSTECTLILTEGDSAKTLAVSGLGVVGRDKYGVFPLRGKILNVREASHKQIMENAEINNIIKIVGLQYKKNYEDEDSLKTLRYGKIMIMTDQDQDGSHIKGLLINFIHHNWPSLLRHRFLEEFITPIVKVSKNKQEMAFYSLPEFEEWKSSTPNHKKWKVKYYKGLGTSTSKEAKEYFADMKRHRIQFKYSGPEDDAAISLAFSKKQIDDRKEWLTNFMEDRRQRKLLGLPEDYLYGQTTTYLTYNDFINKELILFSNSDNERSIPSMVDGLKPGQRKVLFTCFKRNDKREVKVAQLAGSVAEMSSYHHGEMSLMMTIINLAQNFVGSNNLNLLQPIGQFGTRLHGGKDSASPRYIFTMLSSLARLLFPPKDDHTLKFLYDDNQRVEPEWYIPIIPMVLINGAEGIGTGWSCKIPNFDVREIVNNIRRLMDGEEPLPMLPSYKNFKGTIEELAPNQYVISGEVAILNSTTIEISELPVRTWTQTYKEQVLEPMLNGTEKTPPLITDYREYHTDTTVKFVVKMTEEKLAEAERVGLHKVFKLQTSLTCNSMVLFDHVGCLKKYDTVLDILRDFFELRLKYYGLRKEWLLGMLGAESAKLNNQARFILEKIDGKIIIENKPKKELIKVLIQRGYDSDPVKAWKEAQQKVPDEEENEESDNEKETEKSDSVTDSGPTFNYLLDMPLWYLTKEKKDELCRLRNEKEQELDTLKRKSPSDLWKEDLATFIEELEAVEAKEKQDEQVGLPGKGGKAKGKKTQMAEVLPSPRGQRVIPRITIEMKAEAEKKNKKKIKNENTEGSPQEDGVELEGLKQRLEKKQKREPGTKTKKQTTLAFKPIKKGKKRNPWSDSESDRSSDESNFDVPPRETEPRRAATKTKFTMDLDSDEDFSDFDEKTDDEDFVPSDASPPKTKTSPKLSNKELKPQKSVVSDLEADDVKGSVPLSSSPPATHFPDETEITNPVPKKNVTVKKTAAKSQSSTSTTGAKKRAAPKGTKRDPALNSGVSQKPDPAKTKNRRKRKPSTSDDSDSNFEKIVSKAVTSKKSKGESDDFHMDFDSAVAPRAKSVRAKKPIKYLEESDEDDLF
T1 sequence (Q02880 whole entry): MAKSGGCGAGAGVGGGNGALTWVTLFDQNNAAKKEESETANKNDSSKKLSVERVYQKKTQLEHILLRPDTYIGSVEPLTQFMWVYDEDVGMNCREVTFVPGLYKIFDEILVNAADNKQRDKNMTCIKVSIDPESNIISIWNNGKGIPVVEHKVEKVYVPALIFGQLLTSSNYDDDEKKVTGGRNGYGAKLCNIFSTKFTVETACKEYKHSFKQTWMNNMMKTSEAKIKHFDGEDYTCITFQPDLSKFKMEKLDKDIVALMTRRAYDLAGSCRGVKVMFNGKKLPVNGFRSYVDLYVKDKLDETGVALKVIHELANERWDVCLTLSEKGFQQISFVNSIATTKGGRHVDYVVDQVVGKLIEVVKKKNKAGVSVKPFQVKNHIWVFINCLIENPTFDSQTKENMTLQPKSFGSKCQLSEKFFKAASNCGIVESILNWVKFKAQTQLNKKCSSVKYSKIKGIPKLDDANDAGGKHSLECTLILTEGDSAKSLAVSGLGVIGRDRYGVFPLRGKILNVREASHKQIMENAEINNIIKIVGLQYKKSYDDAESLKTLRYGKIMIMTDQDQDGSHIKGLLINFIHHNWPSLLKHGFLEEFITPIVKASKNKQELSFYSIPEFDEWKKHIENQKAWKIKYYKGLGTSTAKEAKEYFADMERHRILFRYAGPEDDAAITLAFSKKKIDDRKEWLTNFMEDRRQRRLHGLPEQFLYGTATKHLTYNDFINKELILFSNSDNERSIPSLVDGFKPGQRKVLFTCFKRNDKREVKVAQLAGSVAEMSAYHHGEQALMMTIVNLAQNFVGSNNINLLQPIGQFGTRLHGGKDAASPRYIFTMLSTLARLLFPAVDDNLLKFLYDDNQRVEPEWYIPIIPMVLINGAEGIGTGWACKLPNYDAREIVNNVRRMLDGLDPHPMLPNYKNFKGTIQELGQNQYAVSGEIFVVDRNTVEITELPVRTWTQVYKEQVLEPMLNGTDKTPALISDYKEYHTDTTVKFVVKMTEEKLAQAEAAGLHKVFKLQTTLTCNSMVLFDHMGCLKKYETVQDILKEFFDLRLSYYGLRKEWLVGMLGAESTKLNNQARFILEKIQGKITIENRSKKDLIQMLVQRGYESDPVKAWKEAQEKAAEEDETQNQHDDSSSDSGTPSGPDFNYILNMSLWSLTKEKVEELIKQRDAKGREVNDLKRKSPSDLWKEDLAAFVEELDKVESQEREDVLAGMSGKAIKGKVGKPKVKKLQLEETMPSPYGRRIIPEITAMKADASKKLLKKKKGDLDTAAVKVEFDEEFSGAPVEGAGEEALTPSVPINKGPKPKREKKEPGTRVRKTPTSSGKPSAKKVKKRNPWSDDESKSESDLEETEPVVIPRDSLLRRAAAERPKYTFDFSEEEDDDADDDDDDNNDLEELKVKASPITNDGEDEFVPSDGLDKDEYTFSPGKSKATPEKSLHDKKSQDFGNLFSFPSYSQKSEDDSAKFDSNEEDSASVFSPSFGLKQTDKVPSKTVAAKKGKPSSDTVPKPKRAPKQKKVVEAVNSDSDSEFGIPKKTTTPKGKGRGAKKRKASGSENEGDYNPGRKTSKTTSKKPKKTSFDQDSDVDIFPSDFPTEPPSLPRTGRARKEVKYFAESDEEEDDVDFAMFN

Row | SMILES | TOPOIIβ Inhibition (TOPOIIβ) | TOPOIIα Inhibition (TOPOIIα) | cardioprotection (in words) ([2]; discussion of Table 1) | TOPOII (TOPOIIα and TOPOIIβ) inhibition (in words) [3] | other results
1 | O=c1c(O)c(-c2ccccc2)oc2cc(O)cc(O)c12 [3,5,7-trihydroxyflavone] |  |  | neither cardioprotection nor TOPOII inhibition | neither cardioprotection nor TOPOII inhibition | cytotoxicity / toxic effects to cardiomyocytes (in words) [1]: generalized cytotoxicity
2 | COc1ccc2c(=O)c(OC)c(-c3cc(OC)c(OC)c(OC)c3)oc2c1 [3,7,3′,4′,5′-O-pentamethylrobinetin] |  |  | entirely failed to display cardioprotection or TOPOII inhibition | entirely failed to display cardioprotection or TOPOII inhibition | 
3 | COc1cc(-c2oc3cc(O)cc(O)c3c(=O)c2O)cc(OC)c1OC [3′,4′,5′-O-trimethylmyricetin] |  |  | entirely failed to display cardioprotection or TOPOII inhibition | entirely failed to display cardioprotection or TOPOII inhibition | 
4 | COc1cc(-c2oc3cc(O)ccc3c(=O)c2O)cc(OC)c1OC [3′,4′,5′-O-trimethylrobinetin] |  |  | entirely failed to display cardioprotection or TOPOII inhibition | entirely failed to display cardioprotection or TOPOII inhibition | 
5 | COc1cc(-c2oc3cc(O)cc(O)c3c(=O)c2O)cc(OC)c1O [3′,5′-O-dimethylmyricetin] |  |  | neither cardioprotection nor TOPOIIα and TOPOIIβ inhibition | neither cardioprotection nor TOPOIIα and TOPOIIβ inhibition | 
6 | COc1cc(-c2oc3cc(O)cc(O)c3c(=O)c2O)cc(O)c1O [3′-O-methylmyricetin] |  |  | conferred cardioprotection | failed to inhibit TOPOII enzymes | cytotoxicity / toxic effects to cardiomyocytes (in words) [1]: without showing generalized cytotoxicity; EC50 ([2]; Homo sapiens, Cardiomyocyte, discussion of Table 1, read-out: EC50 / potency for cardioprotection): ~59 µM
7 | COc1c(O)cc(-c2oc3cc(O)cc(O)c3c(=O)c2O)cc1O [4′-O-methylmyricetin] |  |  | conferred cardioprotection | without TOPOII inhibition | 
8 | COc1ccc2c(=O)c(O)c(-c3cc(OC)c(OC)c(OC)c3)oc2c1 [7,3′,4′,5′-O-tetramethylrobinetin] |  |  | entirely failed to display cardioprotection or TOPOII inhibition | entirely failed to display cardioprotection or TOPOII inhibition | 
9 | O=c1cc(-c2cc(O)c(O)c(O)c2)oc2cc(O)ccc12 [7,3′,4′,5′-tetrahydroxyflavone] |  |  | displayed cardioprotection | did not inhibit TOPOII enzymes | 
10 | O=c1c(O)c(-c2cc(O)c(O)c(O)c2)oc2cc(O)ccc12 [Compound 2, 3,7,3′,4′,5′-pentahydroxyflavone] |  |  |  |  | Toxicity [1]: −; TOPOIIβ enzymatic inhibition (in words) (TOPOIIβ): high level of inhibition; TOPOIIα enzymatic inhibition (in words) (TOPOIIα): high level of inhibition
11 | O=c1cc(-c2cc(O)c(O)c(O)c2)oc2cc(O)cc(O)c12 [Compound 3, 5,7,3′,4′,5′-pentahydroxyflavone] |  |  | displayed cardioprotection | TOPOII inhibition | cytotoxicity / toxic effects to cardiomyocytes (in words) ([1]; listed as tricetin): exhibits some toxic effects at concentrations less than 100 μM; also recorded: low level of cytotoxicity at 100 μM
12 | O=c1c(O)c(-c2ccc(O)c(O)c2)oc2cc(O)cc(O)c12 [Compound 4, 3,5,7,3′,4′-pentahydroxyflavone] |  |  | conferred cardioprotection | exhibited TOPOII inhibition | cytotoxicity / toxic effects to cardiomyocytes (in words) [1]: high level of general cytoxicity
13 | O=c1ccoc2cc(O)ccc12 [Compound 7-hydroxy-4-chromone, 7-hydroxy-4-chromone] |  |  | no positive effect in cardiac protection | Nor did either compound confer TOPOIIβ or a inhibition | cytotoxicity / toxic effects to cardiomyocytes (in words) [1]: high level of cytotoxicity at 100 μM
14 | O=c1cc(-c2ccc(O)cc2)oc2ccccc12 [Compound 17, 4′-hydroxyflavone] |  |  |  |  | Toxicity [1]: −; Emax ([2]; Homo sapiens, iPSC-CM, initial screen at 10 μM or 100 μM, read-out: iPSC-CM protection Max Effect (%)): < 30%
15 | O=c1ccoc2ccccc12 [Compound 29, chromone] |  |  |  |  | Toxicity [1]: −
16 | COc1cc(-c2oc3cc(O)cc(O)c3c(=O)c2O)cc(OC)c1OC [Compound 34, 3′,4′,5′-O-trimethylmyricetin] | − | − |  |  | 
17 | CC(=O)N[C@@H](CS)C(=O)O [N-acetyl cysteine] |  |  |  |  | percentage of cell death vs doxorubicin in the absence of a protective agent [4]: no significant difference; percentage of cell death vs doxorubicin in the absence of a protective agent (A549 cells (lung cancer)): no significant difference; beat period or field potential duration, as compared to control samples [5]: no appreciable difference
18 | C[C@H](CCC(=O)O)[C@H]1CC[C@H]2[C@@H]3[C@H](O)C[C@@H]4C[C@H](O)CC[C@]4(C)[C@H]3CC[C@]12C [chenodeoxycholic acid] |  |  |  |  | acute drug toxicity (beating) [5]: beating cessation; beat period or field potential duration, as compared to control samples [5]: no appreciable difference
19 | O=c1ccoc2ccccc12 [chromone] |  |  | no positive effect in cardiac protection | Nor did either compound confer TOPOIIβ or a inhibition | 
20 | CC(=O)N(O)CCCCCNC(=O)CCC(=O)N(O)CCCCCNC(=O)CCC(=O)N(O)CCCCCN [deferoxamine] |  |  |  |  | beat period or field potential duration, as compared to control samples [5]: no appreciable difference
21 | O=C1c2c(O)cc(O)cc2O[C@H](c2cc(O)c(O)c(O)c2)[C@H]1O [dihydromyricetin] |  |  |  |  | TOPOIIβ enzymatic inhibition (in words) (TOPOIIβ): did not inhibit; TOPOIIα enzymatic inhibition (in words) (TOPOIIα): did not inhibit
22 | O=C1C[C@@H](c2ccc(O)cc2)Oc2cc(O)cc(O)c21 [naringenin] |  |  |  |  | acute drug toxicity (beating) [5]: beating cessation; beat period or field potential duration, as compared to control samples [5]: no appreciable difference

Second part, led by results:

Row | TOPOIIβ Inhibition (TOPOIIβ) | TOPOIIα Inhibition (TOPOIIα) | SMILES | cardioprotection (in words) ([2]; discussion of Table 1) | TOPOII (TOPOIIα and TOPOIIβ) inhibition (in words) [3] | other results
23 | − | − | O=C1c2ccc(O)cc2OC(c2cc(O)c(O)c(O)c2)C1O (stereo in doubt) [Compound 30, dihydrorobinetin] |  |  | TOPOIIβ enzymatic inhibition (in words) (TOPOIIβ): no inhibitory activity; TOPOIIα enzymatic inhibition (in words) (TOPOIIα): no inhibitory activity
24 | − | − | O=c1cc(-c2cc(O)c(O)c(O)c2)oc2cc(O)ccc12 [Compound 6, 7,3′,4′,5′-tetrahydroxyflavone] |  |  | Toxicity [1]: −
25 | − | − | O=c1cc(-c2cc(O)c(O)c(O)c2)oc2ccccc12 [Compound 8, 3′,4′,5′-trihydroxyflavone] |  |  | Toxicity [1]: −
26 | − | − | O=c1cc(-c2ccc(O)c(O)c2)oc2cc(O)cc(O)c12 [Compound 9, 5,7,3′,4′-tetrahydroxyflavone] |  |  | 
27 | − | − | O=c1c(O)c(-c2ccc(O)cc2)oc2cc(O)ccc12 [Compound 10, 3,7,4′-trihydroxyflavone] |  |  | cytotoxicity / toxic effects to cardiomyocytes (in words) [1]: exhibited toxic effects at concentrations below 100 μM
28 | − | − | O=c1cc(-c2ccc(O)c(O)c2)oc2cc(O)ccc12 [Compound 11, 7,3′,4′-trihydroxyflavone] |  |  | 
29 | − | − | O=c1c(O)c(-c2ccc(O)c(O)c2)oc2ccccc12 [Compound 12, 3,3′,4′-trihydroxyflavone] |  |  | 
30 | − | − | COc1cc(-c2oc3cc(O)cc(O)c3c(=O)c2O)cc(O)c1O [Compound 31, 3′-O-methylmyricetin] |  |  | 
31 | − | − | COc1c(O)cc(-c2oc3cc(O)cc(O)c3c(=O)c2O)cc1O [Compound 32, 4′-O-methylmyricetin] |  |  | 
32 | − | − | COc1cc(-c2oc3cc(O)cc(O)c3c(=O)c2O)cc(OC)c1O [Compound 33, 3′,5′-O-dimethylmyricetin] |  |  | 
33 | − | − | COc1cc(-c2oc3cc(O)ccc3c(=O)c2O)cc(OC)c1OC [Compound 35, 3′,4′,5′-O-trimethylrobinetin] |  |  | 
34 | − | − | COc1ccc2c(=O)c(O)c(-c3cc(OC)c(OC)c(OC)c3)oc2c1 [Compound 36, 7,3′,4′,5′-O-tetramethylrobinetin] |  |  | 
35 | − | − | COc1ccc2c(=O)c(OC)c(-c3cc(OC)c(OC)c(OC)c3)oc2c1 [Compound 37, 3,7,3′,4′,5′-O-pentamethylrobinetin] |  |  | 
36 | − | − | O=c1ccoc2cc(O)ccc12 [Compound 38, 7-hydroxy-4-chromone] |  |  | 
